Measured values: US20140196172A1, “Organelle Targeting Nanocarriers” (Her Majesty the Queen in Right of Canada, as Repre sented …, priority 2011, published 2014)

Assays:
[1] = tested on: F1112 (bovine colonic cell line); assay: Uptake of labeled peptides by F1112 cells, photometric cell imaging; assay type: cell-based; conditions: for Average concentration of labeled peptide measured in cells, F1112: cells exposed to labeled peptide at 17 μM; for Photometric Cell Imaging (average counts/sec) F1112: 1 hr, background about 1×10^5 counts/sec
Experimental: Caco-2 and F1112 cells are cultured in Dulbecco's Modified Eagle Medium (DMEM) containing 10% (v/v) fetal bovine serum (FBS) and 50 μg/ml gentamycin at 37° C. in a 95% humidified atmosphere containing 5% CO2. The cells are grown in Falcon™ […] 75 cm^2 cell culture flasks until they reach confluency, then are detached with 0.25% trypsin and 0.02% EDTA and washed with DMEM.
Preparations used for photometric cell imaging are prepared by adding 1000 cells to a Nunc coverglass chamber (2.5 cm^2). Cells are cultured as described above for 3 to 7 days. The cell monolayers are rinsed three times with epithelial cell saline (pH 7.4).
Varying concentrations of fluoresceinated mTPs (100 μM) are added to epithelial cell saline to obtain a final working volume of 400 μl. Final concentrations added to the Caco-2, F1112 and MG cell monolayers as described above are 17 μM, 9 μM and 4 μM. Cells are incubated with the peptides for 1 hr in the dark at 37° C. in a 95% humidified atmosphere containing 5% CO2. At the end of the incubation period, the cell monolayer is rinsed three times with epithelial cell saline and 500 μl of epithelial cell saline is added.
Uptake of labeled peptides by cells is quantified using a photometric detector/cell-imaging system (PTI). An excitation scan is run to determine if uptake has occurred as indicated by peaks at the appropriate wavelengths and if the amount changes in a dose-dependent manner compared to unlabeled cells. A time-based scan is then performed at the optimal excitation and emission wavelength to quantify total uptake, using about 20 cells/view/replicate.

[2] = tested on: mitochondria of triticale protoplasts; assay: qRT-PCR of gfp mRNA, protoplasts transfected with pWMaadA16GFP; assay type: cell-based; conditions: gfp reporter construct
Description: FIG. 19 is a plot showing the level of expression (fold increase, average of 4 replicates) of GFP in triticale protoplasts transfected with the pWMaadA16GFP plasmid in the presence of mTP1 (SEQ ID NO: 1), mTP2 (SEQ ID NO: 2), mTP3 (SEQ ID NO: 3), mTP4 (SEQ ID NO: 4) or mTP5 (SEQ ID NO: 5) compared to the level of expression (fold increase) of the internal control elongation factor 1a (EF1a), as measured by quantitative real time PCR of mRNA levels; and
Wheat mitochondrial aadA16GFP reporter plasmid (pWMaadA16GFP, FIG. 11) is a 4587 base pair wheat specific mitochondrial transformation vector, which targets insertions into the fourth repeat region between the trnfM and rm18 gene cluster which is repeated three times in the Triticum aestivum mitochondrial genome. The insertion site is in the Triticum aestivum mitochondrial genome at nucleotides 300805-300878 and 300880-302834 (GenBank accession No. AP008982.1). A multiple cloning site is introduced following the tmfM target insertion sequence. The selection marker gene is an organelle codon specific aad-gfp fusion gene, which facilitates a dual selection method of spectinomycin resistance through an aadA derivative and visual detection by GFP fluorescence (GenBank accession No. ABX39486; Khan and Maliga, Nat. Biotechnol. (1999 September) 17(9): 910-5). The selection marker gene is driven by the Triticum aestivum mitochondrial atpA gene promoter (GenBank accession No. X54387.1). The aad-gfp fusion gene is terminated with the TpsbA terminator sequence derived from the Triticum aestivum mitochondrial genome at nucleotides 62871-62565 (GenBank accession No. AP008982.1).
The dsDNA construct (pWMaadA16GFP for mitochondrial expression or pWCaadA16GFP for expression in chloroplasts) is combined with the mTP (for mitochondrial expression) or cTP (for expression in chloroplasts) in a final volume of 100 μl of CPW solution. For experiments using mTP1 (SEQ ID NO: 1), mTP2 (SEQ ID NO: 2), mTP3 (SEQ ID NO: 3), or mTP5 (SEQ ID NO: 5), peptides (scaled up from 100 ng, at four times the concentration needed to cause a DNA shift in the gel mobility shift assay (Table 7)) are combined with the pWMaadA16GFP construct (5 μg). For experiments using the remaining oTPs, peptides (30 μg) are combined with the appropriate dsDNA construct (1.5 μg). The mixture is incubated for 10 minutes at room temperature, then incubated with isolated triticale mesophyll protoplasts (500 μl, 10^6 protoplasts/ml, prepared as described in Example 2) for 1 h in the dark at room temperature. CPW solution (500 μl) is added and the mixture is incubated in the dark for 24 h. The cells are imaged using confocal microscopy, as described in Example 2, using MitoTracker® Orange staining to visualize mitochondria and chlorophyll autofluorescence to visualize chloroplasts.
cDNA is generated using a First Strand Synthesis kit (Invitrogen). RNA (1 μg) is added to each sample and the manufacturer's protocol for synthesis followed, with the exception that the volume of the reaction mixture is increased from 20 μl to 30 μl. A negRT sample containing all reagents but no RNA is included in the cDNA synthesis as a negative control.
Standard curves are generated for both elongation factor 1a (EF1a) (internal control) and green fluorescent protein (GFP) (test) genes. […]
Real time PCR reactions are performed using QuantiTect™ SYBR™ Green PCR Master Mix (Qiagen) in a 20 μl reaction volume. […]

Sequence	Average concentration of labeled peptide measured in cells, F1112 [1]	Photometric Cell Imaging (average counts/sec) F1112 ([1]; labeled peptide 4 μM)	Photometric Cell Imaging (average counts/sec) F1112 ([1]; labeled peptide 9 μM)	Photometric Cell Imaging (average counts/sec) F1112 ([1]; labeled peptide 17 μM)	GFP expression by mitochondria confirmed by qRT-PCR [2]
MAAWMRSLFSPLKKLWIRMH (Zea mays) [mTP2]	70 nm	450000 counts/sec	1800000 counts/sec	1700000 counts/sec	GFP is expressed
MFSYLPRYPLRAASARALVRATRPSYRSALLRYQ (listed as Triticum aestivum) [mTP1]	49 nm	330000 counts/sec	560000 counts/sec	1200000 counts/sec	GFP is expressed
MKLLWRLILSRKW (listed as Arabidopsis thaliana) [mTP3]	53 nm	350000 counts/sec	1100000 counts/sec	1300000 counts/sec	GFP is expressed
MLFRLRRSVRLRGLLA (listed as Arabidopsis thaliana) [mTP5]	60 nm	440000 counts/sec	2000000 counts/sec	1600000 counts/sec	GFP is expressed
MWWRRSRTNSLRYT (listed as Arabidopsis thaliana) [mTP4]	144 nm	250000 counts/sec	300000 counts/sec	3500000 counts/sec	GFP is expressed
